In brackets after ≈: the same amount, converted by molar mass. Values belong to the compound of their own block, whether it stands above or below them.
What was measured:
Assay type in all cases: physicochemical
[1] = Stability Test 1 (80° C., lighting, 25° C./60% RH, 40° C./75% RH; HPLC)
Method: • Chromatographic conditions: • Chromatographic column: C18 column; • Running time: 60 min; • UV detector: 210 nm; • Flow rate: 1.0 mL/min; • Injection volume: 5 μL.
A certain amount of crystals and amorphous raw materials were weighed and placed in liquid phase vials, and a total of 5 parts were prepared. The 5 parts were respectively placed under 80° C. (opened), 25° C./60% RH (opened), and 40° C./75% RH (opened) and in a stable lighting chamber (closed, 5000±500 Lx), and the stability under lighting for 10 days, 80° C. 1 day, and the chemical stability under 25° C. and 60% RH and under 40° C. and 75% RH for 1 week were determined by liquid phase, and the XRPD of the solid was determined.

[2] = Dynamic vapor sorption (DVS) hygroscopicity; conditions: for Hygroscopicity (DVS): 80% humidity, 25° C.; for Solid form by XRPD before and after DVS test: XRPD before vs after DVS
Method: The sample was analyzed through Intrinsic DVS ([…]). The amount of test sample was about 20-30 mg. The temperature of a test room was controlled between 25±1° C., the relative humidity increased from 0% to 90% and then decreased to 0% at a rate of 10%/h, and mass data was recorded every 20 s.
The DVS curve was acquired from DVS Intrinsic through an SMS (Surface Measurement Systems). The relative humidity at 25° C. was calibrated according to deliquescent points of LiCl, Mg(NO3)2 and KCl.

[3] = Solubility test of amorphous substance (room temperature); conditions: read-out: Roughly measured solubility
Method: About 10 mg of amorphous substance was weighted and placed into an 8 mL glass bottle, and a solvent was gradually added at room temperature. 5 μL of solvent was added each time until all the solids were dissolved, and if 8 mL of solvent was added and the solids were not dissolved, the solvent addition was stopped. Table 1. Test results of solubility of amorphous substance of compound represented by Formula (1) (room temperature)

[4] = Long-term stability test, packaged crystal form (Table 7); conditions: 30±2° C./65±5% RH
Text: (§1) Packaging requirements: it is needed to simulate commercially available packaging for the stability sample, the two inner layers are inner flat-bottom bags made of pharmaceutical polyethylene, the first layer of inner bag is tied and sealed, the second layer of inner bag is subjected to heat sealing, an aluminum foil bag at an outer layer is subjected to heat sealing, a package of desiccant is placed between the aluminum foil bag and the second layer of inner bag, and the package is placed in a fiber can.
The sample was taken in the 0th, 3rd and 6th months. The test items, test methods and technical requirements are detailed in Table 7, and the test results are compared with those in the 0th month.

[5] = Accelerated stability test of crystal form (Example 3, 40±2° C./75±5% RH)
Method: The sample was taken at 0th, 1st and 3rd month for analysis, the stability of the samples was determined by liquid phase, and the crystal form was determined by XRPD.

[6] = Solubility test of crystal form (room temperature); conditions: thermodynamic from solid
Method: About 5 mg of the crystal form sample was weighed and placed in an 8 mL glass bottle, and solvent was gradually added at room temperature. 10 μL of solvent was added each time until all solids were dissolved, and if 5 mL of solvent was added and the solids were not dissolved, the solvent addition was stopped.

[7] = Accelerated stability test, packaged crystal form (Table 6); conditions: 40 ± 2° C./75 ± 5% RH
Text: as §1
The sample was taken in the 0th, 1st, 2nd, 3rd and 6th months. The test items, test methods and technical requirements are detailed in Table 6, and the test results are compared with those in the 0th month.

[8] = 25° C., 60% RH (opened), 1 week
[9] = 40° C., 75% RH (opened), 1 week
[10] = Lighting (closed, 5000±500 Lx), 10 Days

- Degradation (%) [1, 8]: 0.01%
- Purity (%) [1, 8]: 99.27%
- Degradation (%) [1, 9]: 0.03%
- Purity (%) [1, 9]: 99.25%
- Degradation (%) ([1]; 80° C. (opened), 1 Day): 0.18%
- Purity (%) ([1]; 80° C. (opened), 1 Day): 99.10%
- Purity (%) ([1]; Initial): 99.28%
- Degradation (%) [1, 10]: 1.02%
- Purity (%) [1, 10]: 98.26%
- Hygroscopicity (DVS) [2]: slightly hygroscopic
- solubility ([3]; organic solvent or mixture, thermodynamic from solid, 1,4-Dioxane): > 760 mg/mL
- solubility ([3]; organic solvent or mixture, thermodynamic from solid, Acetone): > 520 mg/mL
- solubility ([3]; organic solvent or mixture, thermodynamic from solid, Acetonitrile): > 587 mg/mL
- solubility ([3]; organic solvent or mixture, thermodynamic from solid, Anisole): > 510 mg/mL
- solubility ([3]; organic solvent or mixture, thermodynamic from solid, Butanone): > 700 mg/mL
- solubility ([3]; organic solvent or mixture, thermodynamic from solid, Cyclohexane): < 1.2 mg/mL
- solubility ([3]; organic solvent or mixture, thermodynamic from solid, Dichloromethane): > 798 mg/mL
- solubility ([3]; organic solvent or mixture, thermodynamic from solid, Dimethyl sulfoxide): > 450 mg/mL
- solubility ([3]; organic solvent or mixture, thermodynamic from solid, Ethanol): > 480 mg/mL
- solubility ([3]; organic solvent or mixture, thermodynamic from solid, Ethyl acetate): > 600 mg/mL
- solubility ([3]; organic solvent or mixture, thermodynamic from solid, Ethyl formate): > 405 mg/mL
- solubility ([3]; organic solvent or mixture, thermodynamic from solid, Isopropanol): > 432 mg/mL
- solubility ([3]; organic solvent or mixture, thermodynamic from solid, Isopropyl acetate): > 643 mg/mL
- solubility ([3]; organic solvent or mixture, thermodynamic from solid, Methanol): > 725 mg/mL
- solubility ([3]; organic solvent or mixture, thermodynamic from solid, Methyl isobutyl ketone): > 400 mg/mL
- solubility ([3]; organic solvent or mixture, thermodynamic from solid, Methyl tert-butyl ether): > 70 mg/mL
- solubility ([3]; organic solvent or mixture, thermodynamic from solid, N-heptane): < 1.3 mg/mL
- solubility ([3]; organic solvent or mixture, thermodynamic from solid, N-hexane): < 1.2 mg/mL
- solubility ([3]; organic solvent or mixture, thermodynamic from solid, N-propanol): > 460 mg/mL
- solubility ([3]; organic solvent or mixture, thermodynamic from solid, Tetrahydrofuran): > 553 mg/mL
- solubility ([3]; organic solvent or mixture, thermodynamic from solid, Toluene): > 473 mg/mL
- solubility ([3]; thermodynamic from solid, Water): < 1.3 mg/mL
Compound: CC(C)C(=O)O[C@@H](C)OC(=O)NC(C)(C)C(=O)N[C@H](COCc1ccccc1)C(=O)N1CCC2(CC1)CN(S(C)(=O)=O)c1ccccc12 [amorphous substance, (4R,11R)-7,7-dimethyl-4-(1-(methylsulfonyl)spiro[indoldoline-3,4′-piperidine]-1′-carbonyl)-6,9-dioxo-1-phenyl-2,10-dioxa-5,8-diazadodecane-11-ylisobutyrate]
- Solid form by XRPD before and after DVS test [2]: the morphology of the solid did not change

- Characters ([4]; 0th month): White powder
- Conclusion ([4]; 0th month): Qualified
- Content (anhydrous and insoluble residue)/HPLC ([4]; 0th month): 99.4%
- Isomer/HPLC: Chiral purity ([4]; 0th month): 100.0%
- Isomer/HPLC: Isomer 1 ([4]; 0th month): 0.05%
- Moisture ([4]; 0th month): 0.2%
- Related substance/HPLC: Impurity 3 ([4]; 0th month): <0.05%
- Related substance/HPLC: Other impurities ([4]; 0th month): 0.05%
- Related substance/HPLC: Total impurities ([4]; 0th month): 0.05%
- Characters ([4]; 3rd month): White powder
- Conclusion ([4]; 3rd month): Qualified
- Content (anhydrous and insoluble residue)/HPLC ([4]; 3rd month): 99.9%
- Isomer/HPLC: Chiral purity ([4]; 3rd month): 99.9%
- Isomer/HPLC: Isomer 1 ([4]; 3rd month): 0.06%
- Moisture ([4]; 3rd month): 0.1%
- Related substance/HPLC: Impurity 3 ([4]; 3rd month): <0.05%
- Related substance/HPLC: Other impurities ([4]; 3rd month): 0.05%
- Related substance/HPLC: Total impurities ([4]; 3rd month): 0.05%
- Stability under the long-term condition ([4]; 6 months vs 0th month): stable
- Characters ([4]; 6th month): White powder
- Conclusion ([4]; 6th month): Qualified
- Content (anhydrous and insoluble residue)/HPLC ([4]; 6th month): 99.6%
- Isomer/HPLC: Chiral purity ([4]; 6th month): 100.0%
- Isomer/HPLC: Isomer 1 ([4]; 6th month): 0.03%
- Moisture ([4]; 6th month): 0.1%
- Related substance/HPLC: Impurity 3 ([4]; 6th month): <0.05%
- Related substance/HPLC: Other impurities ([4]; 6th month): <0.05%
- Related substance/HPLC: Total impurities ([4]; 6th month): <0.05%
- New impurity peak ([4]; 6th month vs 0th month): ≤ 0.10%
- Degradation (%) [1, 8]: 0.02%
- Purity (%) [1, 8]: 99.69%
- Degradation (%) [1, 9]: 0.1%
- Purity (%) [1, 9]: 99.61%
- Degradation (%) ([1]; 80° C. (opened), 1 Day): 0.12%
- Purity (%) ([1]; 80° C. (opened), 1 Day): 99.59%
- Purity (%) ([1]; Initial): 99.71%
- Degradation (%) [1, 10]: 0.35%
- Purity (%) [1, 10]: 99.36%
- Moisture adsorption (DVS) ([2]; 25° C./80% RH): 0.10%
- Hygroscopicity (DVS) [2]: almost had no hygroscopicity
- Solid form by XRPD before and after DVS test [2]: the crystal form did not vary
- Total impurities (%) ([5]; 1 month): 0.07%
- Total impurities (%) ([5]; 3 months): 0.05%
- Total impurities (%) ([5]; Initial): 0.07%
- solubility ([6]; organic solvent or mixture, Acetone): ~117 mg/mL (≈ 170 mM)
- solubility ([6]; organic solvent or mixture, Acetonitrile): ~128 mg/mL (≈ 186 mM)
- solubility ([6]; organic solvent or mixture, Dichloromethane): ~251 mg/mL (≈ 365 mM)
- solubility ([6]; organic solvent or mixture, Ethanol): ~20.9 mg/mL (≈ 30.4 mM)
- solubility ([6]; organic solvent or mixture, Ethyl acetate): ~133 mg/mL (≈ 193 mM)
- solubility ([6]; organic solvent or mixture, Methyl tert-butyl ether): ~0.7 mg/mL (≈ 1.02 mM)
- solubility ([6]; organic solvent or mixture, N-heptane): < 0.6 mg/mL
- solubility ([6]; organic solvent or mixture, Tetrahydrofuran): ~232 mg/mL (≈ 339 mM)
- solubility ([6]; organic solvent or mixture, Toluene): ~13.2 mg/mL (≈ 19.2 mM)
- solubility ([6]; Water): < 0.7 mg/mL
- Conclusion ([7]; 0th month): Qualified
- Content (anhydrous and insoluble residue)/HPLC ([7]; 0th month): 99.4%
- Isomer/HPLC: Chiral purity ([7]; 0th month): 100.0%
- Isomer/HPLC: Isomer 1 ([7]; 0th month): 0.05%
- Moisture ([7]; 0th month): 0.2%
- Related substances/HPLC: Impurity 3 ([7]; 0th month): <0.05%
- Related substances/HPLC: Other impurities ([7]; 0th month): 0.05%
- Related substances/HPLC: Total impurities ([7]; 0th month): 0.05%
- Conclusion ([7]; 1st month): Qualified
- Content (anhydrous and insoluble residue)/HPLC ([7]; 1st month): 99.0%
- Isomer/HPLC: Chiral purity ([7]; 1st month): 100.0%
- Isomer/HPLC: Isomer 1 ([7]; 1st month): 0.04%
- Moisture ([7]; 1st month): 0.1%
- Related substances/HPLC: Impurity 3 ([7]; 1st month): <0.05%
- Related substances/HPLC: Other impurities ([7]; 1st month): 0.05%
- Related substances/HPLC: Total impurities ([7]; 1st month): 0.05%
- Conclusion ([7]; 2nd month): Qualified
- Content (anhydrous and insoluble residue)/HPLC ([7]; 2nd month): 98.9%
- Isomer/HPLC: Chiral purity ([7]; 2nd month): 100.0%
- Isomer/HPLC: Isomer 1 ([7]; 2nd month): 0.04%
- Moisture ([7]; 2nd month): 0.2%
- Related substances/HPLC: Impurity 3 ([7]; 2nd month): <0.05%
- Related substances/HPLC: Other impurities ([7]; 2nd month): 0.05%
- Related substances/HPLC: Total impurities ([7]; 2nd month): 0.05%
- Conclusion ([7]; 3rd month): Qualified
- Content (anhydrous and insoluble residue)/HPLC ([7]; 3rd month): 98.9%
- Isomer/HPLC: Chiral purity ([7]; 3rd month): 100.0%
- Isomer/HPLC: Isomer 1 ([7]; 3rd month): 0.04%
- Moisture ([7]; 3rd month): 0.1%
- Related substances/HPLC: Impurity 3 ([7]; 3rd month): <0.05%
- Related substances/HPLC: Other impurities ([7]; 3rd month): <0.05%
- Related substances/HPLC: Total impurities ([7]; 3rd month): <0.05%
- Stability under the accelerated condition ([7]; 6 months vs 0th month): stable
- Conclusion ([7]; 6th month): Qualified
- Content (anhydrous and insoluble residue)/HPLC ([7]; 6th month): 99.5%
- Isomer/HPLC: Chiral purity ([7]; 6th month): 100.0%
- Isomer/HPLC: Isomer 1 ([7]; 6th month): 0.04%
- Moisture ([7]; 6th month): 0.1%
- Related substances/HPLC: Impurity 3 ([7]; 6th month): <0.05%
- Related substances/HPLC: Other impurities ([7]; 6th month): <0.05%
- Related substances/HPLC: Total impurities ([7]; 6th month): <0.05%
- New impurity peak ([7]; 6th month vs 0th month): ≤ 0.10%
Compound: CC(C)C(=O)O[C@@H](C)OC(=O)NC(C)(C)C(=O)N[C@H](COCc1ccccc1)C(=O)N1CCC2(CC1)CN(S(C)(=O)=O)c1ccccc12 [crystal form, (4R,11R)-7,7-dimethyl-4-(1-(methylsulfonyl)spiro[indoldoline-3,4′-piperidine]-1′-carbonyl)-6,9-dioxo-1-phenyl-2,10-dioxa-5,8-diazadodecane-11-ylisobutyrate]

Reference: US20260226054A1, “CRYSTAL FORM AND AMORPHOUS SUBSTANCE OF INDOLINE SPIRO COMPOUND, AND PREPARATION METHOD THEREFOR AND USE THEREOF” (CHANGCHUN GENESCIENCE PHARMACEUTICAL CO., LTD., priority 2022, published 2026)
